{
  "source": "patent US20250154144A1",
  "about": "(CHILDREN'S HOSPITAL MEDICAL CENTER, priority 2021, published 2025)",
  "key": {"THP1 cells": {"system": "THP1 cells", "assay": "Combination drug screening, Cell Titer Glo, 10 × 10 matrix, THP1 cells", "assay_type": "cell-based", "details": "THP1 cells; for Excess HSA Score: 10 × 10"}, "MOLM14(D835Y) cells": {"system": "MOLM14(D835Y) cells", "assay_type": "cell-based", "details": "MOLM14(D835Y) cells; for Excess HSA Score: 10 × 10"}, "FLT3": {"target": "T1, FLT3 (Homo sapiens, UniProt P36888)", "T1 sequence (P36888 610-943 limits assumed)": "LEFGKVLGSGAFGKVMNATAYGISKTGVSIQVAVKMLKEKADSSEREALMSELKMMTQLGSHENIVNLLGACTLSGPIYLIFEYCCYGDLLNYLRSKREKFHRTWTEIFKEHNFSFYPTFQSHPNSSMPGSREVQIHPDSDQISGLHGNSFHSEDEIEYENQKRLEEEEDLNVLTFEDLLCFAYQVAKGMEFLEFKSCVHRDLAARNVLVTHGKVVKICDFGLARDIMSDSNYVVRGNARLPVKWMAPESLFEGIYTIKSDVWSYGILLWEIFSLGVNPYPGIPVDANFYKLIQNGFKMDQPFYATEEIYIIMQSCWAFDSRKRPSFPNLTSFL", "assay": "RBC HotSpot Kinase Assay, FLT3"}, "IRAK1": {"target": "IRAK1 (Homo sapiens, UniProt P51617)", "sequence (P51617 whole entry)": "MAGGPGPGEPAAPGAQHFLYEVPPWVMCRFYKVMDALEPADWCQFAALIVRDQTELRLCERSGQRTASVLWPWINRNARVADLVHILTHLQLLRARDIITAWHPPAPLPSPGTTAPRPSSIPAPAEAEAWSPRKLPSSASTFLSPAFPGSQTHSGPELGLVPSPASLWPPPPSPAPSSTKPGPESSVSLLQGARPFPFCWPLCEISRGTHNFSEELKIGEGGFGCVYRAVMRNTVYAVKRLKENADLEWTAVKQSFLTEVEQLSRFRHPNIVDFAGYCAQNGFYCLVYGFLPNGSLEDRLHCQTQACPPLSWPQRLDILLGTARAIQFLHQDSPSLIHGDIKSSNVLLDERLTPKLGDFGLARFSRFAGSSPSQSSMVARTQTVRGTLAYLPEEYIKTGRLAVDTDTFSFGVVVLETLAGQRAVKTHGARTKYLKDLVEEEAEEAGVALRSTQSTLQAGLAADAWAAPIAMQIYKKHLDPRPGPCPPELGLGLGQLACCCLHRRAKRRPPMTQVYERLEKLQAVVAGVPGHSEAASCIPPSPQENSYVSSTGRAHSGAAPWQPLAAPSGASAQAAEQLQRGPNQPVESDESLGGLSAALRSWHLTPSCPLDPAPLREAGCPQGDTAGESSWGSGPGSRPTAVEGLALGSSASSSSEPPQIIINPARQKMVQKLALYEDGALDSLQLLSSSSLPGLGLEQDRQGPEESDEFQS", "assay": "RBC HotSpot Kinase Assay, IRAK1"}, "IRAK4": {"target": "T2, IRAK4 (Homo sapiens, UniProt Q9NWZ3)", "T2 sequence (Q9NWZ3 1-460)": "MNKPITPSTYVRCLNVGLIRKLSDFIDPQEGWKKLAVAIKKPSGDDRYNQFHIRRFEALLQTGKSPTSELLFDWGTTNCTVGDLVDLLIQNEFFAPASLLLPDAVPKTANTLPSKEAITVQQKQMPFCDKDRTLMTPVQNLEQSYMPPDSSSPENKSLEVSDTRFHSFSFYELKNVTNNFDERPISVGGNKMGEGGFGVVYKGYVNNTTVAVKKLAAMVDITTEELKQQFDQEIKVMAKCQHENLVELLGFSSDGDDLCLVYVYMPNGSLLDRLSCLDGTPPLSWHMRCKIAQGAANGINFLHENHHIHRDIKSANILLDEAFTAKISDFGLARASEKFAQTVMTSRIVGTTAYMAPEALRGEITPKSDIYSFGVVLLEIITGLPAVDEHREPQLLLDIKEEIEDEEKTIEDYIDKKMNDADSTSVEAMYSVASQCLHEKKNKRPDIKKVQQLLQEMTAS", "assay": "RBC HotSpot Kinase Assay, IRAK4"}, "MOLM14 D835Y cells": {"system": "MOLM14 D835Y cells", "assay": "cells", "assay_type": "cell-based", "details": "48 hours, Cell Titer Glo, read-out: MOLM14 D835Y IC50"}, "MOLM14 F691L cells": {"system": "MOLM14 F691L cells", "assay": "cells", "assay_type": "cell-based", "details": "48 hours, Cell Titer Glo, read-out: MOLM14 F691L IC50"}, "[1]": {"details": "combination with (+)-BAY-1251152"}, "[2]": {"details": "combination with Eprenetapopt/APR-246"}, "[3]": {"details": "combination with Venetoclax (ABT-199)"}},
  "note": "Where two headings read alike, the source gives them in different places.",
  "data": [
    {"smiles": "COc1cc2ncc(-c3ccnc(N[C@@H]4CCCNC4)n3)n2cc1C(C)(O)C(F)(F)F", "note": "(single isomer, unassigned) [Compound 59]", "values": [
      {"measurement": "Excess HSA Score", "setting": "THP1 cells; [1]", "result": "−945.9"},
      {"measurement": "Excess HSA Score", "setting": "THP1 cells; combination with AMG-232", "result": 249.9},
      {"measurement": "Excess HSA Score", "setting": "THP1 cells; combination with AZD-5363", "result": "−164.6"},
      {"measurement": "Excess HSA Score", "setting": "THP1 cells; [2]", "result": 269.2},
      {"measurement": "Excess HSA Score", "setting": "THP1 cells; combination with Ivosidenib", "result": 205.2},
      {"measurement": "Excess HSA Score", "setting": "THP1 cells; combination with Lenalidomide", "result": 30.374},
      {"measurement": "Excess HSA Score", "setting": "THP1 cells; combination with Palbociclib", "result": "−620.1"},
      {"measurement": "Excess HSA Score", "setting": "THP1 cells; combination with Prednisolone", "result": 486.6},
      {"measurement": "Excess HSA Score", "setting": "THP1 cells; combination with SNDX-5613", "result": 68.13},
      {"measurement": "Excess HSA Score", "setting": "THP1 cells; combination with TNO-155", "result": 213.8},
      {"measurement": "Excess HSA Score", "setting": "THP1 cells; combination with Trametinib", "result": "−374.5"},
      {"measurement": "Excess HSA Score", "setting": "THP1 cells; combination with Ulixertinib", "result": 164.2711},
      {"measurement": "Excess HSA Score", "setting": "THP1 cells; [3]", "result": "−1422"},
      {"measurement": "Comments", "setting": "THP1 cells; combination with Lenalidomide", "result": "Antagonistic"},
      {"measurement": "Comments", "setting": "THP1 cells; [3]", "result": "Synergistic"},
      {"measurement": "Excess HSA Score", "setting": "MOLM14(D835Y) cells; [1]", "result": "−448.2"},
      {"measurement": "Excess HSA Score", "setting": "MOLM14(D835Y) cells; combination with AMG-232", "result": "−416.2"},
      {"measurement": "Excess HSA Score", "setting": "MOLM14(D835Y) cells; combination with AZD-5363", "result": "−316.4244"},
      {"measurement": "Excess HSA Score", "setting": "MOLM14(D835Y) cells; [2]", "result": "−22.76"},
      {"measurement": "Excess HSA Score", "setting": "MOLM14(D835Y) cells; combination with Ivosidenib", "result": 107.6},
      {"measurement": "Excess HSA Score", "setting": "MOLM14(D835Y) cells; combination with Lenalidomide", "result": 395.8},
      {"measurement": "Excess HSA Score", "setting": "MOLM14(D835Y) cells; combination with Palbociclib", "result": "−185.3"},
      {"measurement": "Excess HSA Score", "setting": "MOLM14(D835Y) cells; combination with Prednisolone", "result": 66.52},
      {"measurement": "Excess HSA Score", "setting": "MOLM14(D835Y) cells; combination with SNDX-5613", "result": 130.9},
      {"measurement": "Excess HSA Score", "setting": "MOLM14(D835Y) cells; combination with TNO-155", "result": "−722.6"},
      {"measurement": "Excess HSA Score", "setting": "MOLM14(D835Y) cells; combination with Trametinib", "result": "−383"},
      {"measurement": "Excess HSA Score", "setting": "MOLM14(D835Y) cells; combination with Ulixertinib", "result": "−473"},
      {"measurement": "Excess HSA Score", "setting": "MOLM14(D835Y) cells; [3]", "result": "−1215"},
      {"measurement": "Comments", "setting": "MOLM14(D835Y) cells; combination with Prednisolone", "result": "Antagonistic"},
      {"measurement": "Comments", "setting": "MOLM14(D835Y) cells; [3]", "result": "Synergistic"},
      {"measurement": "IC50", "setting": "FLT3; read-out: FLT3 IC50", "result": "< 0.0005", "unit": "µM"},
      {"measurement": "IC50", "setting": "IRAK1; read-out: IRAK1 IC50", "result": "< 0.0005", "unit": "µM"},
      {"measurement": "IC50", "setting": "IRAK4; read-out: IRAK4 IC50", "result": "< 0.0005", "unit": "µM"}
    ]},
    {"smiles": "CC(O)(c1cn2c(-c3ccnc(N[C@@H]4CCCNC4)n3)cnc2cn1)C(F)(F)F", "note": "(single isomer, unassigned) [Compound 67]", "values": [
      {"measurement": "IC50", "setting": "MOLM14 D835Y cells; Homo sapiens, MOLM-14, 48 h", "result": 0.137, "unit": "µM"},
      {"measurement": "IC50", "setting": "MOLM14 F691L cells; Homo sapiens, MOLM-14, 48 h", "result": 0.77, "unit": "µM"},
      {"measurement": "IC50", "setting": "FLT3; FLT3 IC50", "result": "< 0.0005", "unit": "µM"},
      {"measurement": "IC50", "setting": "IRAK1; IRAK1 IC50", "result": 0.031, "unit": "µM"},
      {"measurement": "IC50", "setting": "IRAK4; IRAK4 IC50", "result": 0.022, "unit": "µM"}
    ]},
    {"smiles": "CC(O)(c1cn2c(-c3ccnc(N[C@H]4CNC[C@@H]4F)n3)cnc2cn1)C(F)(F)F", "note": "(single isomer, unassigned) [Compound 71]", "values": [
      {"measurement": "IC50", "setting": "MOLM14 D835Y cells", "result": 0.069, "unit": "µM"},
      {"measurement": "IC50", "setting": "MOLM14 F691L cells", "result": 0.686, "unit": "µM"},
      {"measurement": "IC50", "setting": "FLT3; read-out: FLT3 IC50", "result": "< 0.0005", "unit": "µM"},
      {"measurement": "IC50", "setting": "IRAK1; IRAK1 IC50", "result": 0.005, "unit": "µM"},
      {"measurement": "IC50", "setting": "IRAK4; IRAK4 IC50", "result": "< 0.0005", "unit": "µM"}
    ]},
    {"smiles": "CC(O)(c1cn2c(-c3cncc(N[C@@H]4CCCNC4)n3)cnc2cn1)C(F)(F)F", "note": "(single isomer, unassigned) [Compound 73]", "values": [
      {"measurement": "IC50", "setting": "MOLM14 D835Y cells", "result": 0.612, "unit": "µM"},
      {"measurement": "IC50", "setting": "MOLM14 F691L cells", "result": 0.969, "unit": "µM"},
      {"measurement": "IC50", "setting": "FLT3; FLT3 IC50", "result": 0.008, "unit": "µM"},
      {"measurement": "IC50", "setting": "IRAK1; IRAK1 IC50", "result": 0.091, "unit": "µM"},
      {"measurement": "IC50", "setting": "IRAK4; IRAK4 IC50", "result": 0.037, "unit": "µM"}
    ]},
    {"smiles": "CC(O)(c1cn2c(-c3cncc(N[C@@H]4CCCNC4)n3)cnc2cn1)C(F)(F)F", "note": "(single isomer, unassigned) [Compound 74]", "values": [
      {"measurement": "IC50", "setting": "MOLM14 D835Y cells", "result": 0.217, "unit": "µM"},
      {"measurement": "IC50", "setting": "MOLM14 F691L cells", "result": 0.344, "unit": "µM"},
      {"measurement": "IC50", "setting": "FLT3; FLT3 IC50", "result": 0.003, "unit": "µM"},
      {"measurement": "IC50", "setting": "IRAK1; IRAK1 IC50", "result": 0.029, "unit": "µM"},
      {"measurement": "IC50", "setting": "IRAK4; IRAK4 IC50", "result": 0.004, "unit": "µM"}
    ]},
    {"smiles": "CC(O)(c1cn2c(-c3cncc(N[C@H]4CNC[C@@H]4F)n3)cnc2cn1)C(F)(F)F", "note": "(single isomer, unassigned) [Compound 75]", "values": [
      {"measurement": "IC50", "setting": "MOLM14 D835Y cells; Homo sapiens, MOLM-14, 48 h", "result": 1.09, "unit": "µM"},
      {"measurement": "IC50", "setting": "MOLM14 F691L cells; Homo sapiens, MOLM-14, 48 h", "result": 1.72, "unit": "µM"},
      {"measurement": "IC50", "setting": "FLT3; FLT3 IC50", "result": 0.009, "unit": "µM"},
      {"measurement": "IC50", "setting": "IRAK1; IRAK1 IC50", "result": 0.262, "unit": "µM"},
      {"measurement": "IC50", "setting": "IRAK4; IRAK4 IC50", "result": 0.04, "unit": "µM"}
    ]},
    {"smiles": "CC(O)(c1cn2c(-c3cncc(N[C@H]4CNC[C@@H]4F)n3)cnc2cn1)C(F)(F)F", "note": "(single isomer, unassigned) [Compound 77]", "values": [
      {"measurement": "IC50", "setting": "MOLM14 D835Y cells", "result": 0.686, "unit": "µM"},
      {"measurement": "IC50", "setting": "MOLM14 F691L cells", "result": 1.93, "unit": "µM"},
      {"measurement": "IC50", "setting": "FLT3; FLT3 IC50", "result": 0.007, "unit": "µM"},
      {"measurement": "IC50", "setting": "IRAK1; IRAK1 IC50", "result": 0.089, "unit": "µM"},
      {"measurement": "IC50", "setting": "IRAK4; IRAK4 IC50", "result": 0.004, "unit": "µM"}
    ]}
  ]
}
